Entries after “also recorded” stand apart in the source; their conditions may differ. Where a SMILES comes first, the peptide text is derived from it. Bridges are numbered along the chain shown (N, C = ends). Roman numbers before positions name the chains, in order. Triazole bridges read from a SMILES are 1,4-linked. Where no end group is shown, it is not given here. [ ]: non-standard residue; d: D form. The star is where a group is joined. Biotin = O=C1N[C@H]2[C@H](CS[C@H]2CCCCC(=O)*)N1; Lys(N3) = [N-]=[N+]=NCCCC[C@H](N)C(=O)O; PEG6 = NCCOCCOCCOCCOCCOCCOCCC(=O)O; dPra = C#CC[C@@H](N)C(=O)O
What was measured:
[1] = biological target: T1, E17K 33-mer fragment (6His-tagged) (Homo sapiens, UniProt P31749, E17K/H13K); assay: HPLC-detected immunoprecipitation (pulldown), E17K 33-mer; type: binding; conditions: 50 μM epitope, overnight 4° C., guanidine elution, in words
T1 construct: made in house; host or cells: chemical synthesis (Fmoc SPPS)
T1 sequence (P31749 1-33 H13K/E17K limits assumed): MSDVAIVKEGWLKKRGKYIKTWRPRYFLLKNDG
Excerpt: The label-modified yleaf (SEQ ID NO: 43) peptide (FIG. 2a and FIG. 12) was subjected to a variety of binding assays against the synthesized WT and E17K 33-mer PHD fragments prepared without the biotin label and alkyne click handle. First, the yleaf (SEQ ID NO: 43) peptide was used in immunoprecipitation assays to pull-down either the WT or E17K mutant 6His-tagged (SEQ ID NO: 4) 33-mer peptide fragments (FIGS. 13 and 14), as opposed to the full-length proteins that were used to initially validate the candidates. Typical immunoprecipitation assays involve western blotting to estimate the amount of protein binding, but 33-mer peptide fragments are not easily quantified on a blot. Because of this, the amount of peptide epitope precipitated in these assays was quantified via injection on an analytical HPLC. These assays further confirmed preferential yleaf (SEQ ID NO: 43) ligand binding to the E17K 33-mer epitope relative to the WT epitope (FIG. 15).
Pulldown assays with the biotinylated anchor and his-tagged 33-mer epitope were performed to verify epitope targeting. […] Because small peptide fragments like the 33-mer epitope are difficult to transfer to and detect on the nitrocellulose membrane as for a traditional Western blot, the amount of binding in these assays was detected via HPLC. […]

[2] = biological target: T2, wildtype PH Domain (PHD) of Akt1 (Homo sapiens, UniProt P31749); assay: Streptavidin-agarose immunoprecipitation (pulldown), WT; type: binding; conditions: in words
T2 construct: The first 124 N-terminal amino acids from full length Akt1 were used as the PH Domain DNA; made in house; host or cells: E. coli
Description: (§1) Four biligand candidates were chosen based on their hydrophobicity and sequence homology using principal component analysis (FIG. 25). Biligands were synthesized by coupling the 2° ligand onto Rink Amide Resin on the Titan peptide synthesizer. The amide group on the end of the Lys(N3) was capped by shaking the resin with 2 mL acetic anhydride, 2 mL NMP and 0.5 mL DIEA for 3×10 minutes, then washed with NMP. FMOC-Propargylglycine-Otbu (Pra) was clicked onto the Lys(N3) on the 2° ligand by incubating 2 eq of the Pra amino acid with 2 eq CuI and 2 eq ascorbic acid with 1 eq azide on resin in 20% piperidine/NMP for 3 hours. The resin was washed 5×4 mL with a chelating solution of 1 g sodium diethyldithiocarbamate in 20 mL NMP and 1 mL DIEA. The anchor was then built onto the 2° ligand on bead, and an N-terminal PEG5-biotin tag were added. Assays were performed exactly as for the anchor ligands, except for two key differences. The biligand assays were done with 6 ug of GST-tagged PHD protein, instead of the untagged PHD that was used in the anchor pulldowns. The pull-downs were also conducted out of 1% serum in 1×TBS, as opposed to just 1×TBS.
(§2) Pulldown assays were done on Streptavidin Agarose resin from Invitrogen. The resin was incubated with N-terminal biotinylated anchor peptide candidates identified via the ClusterLigand sequence analysis. The anchor candidate coated beads were then incubated with either the wildtype or mutant protein to compare the selectivity of the ligands, as well as the binding ability. The bound protein was eluted and western blotted to compare the amount of protein present for each sample.
(§3) Relative protein band sizes were analyzed to compare binding between the anchor candidates and were used to determine selectivity for either wildtype or mutant PH Domain (FIG. 11). […] Both of these ligands look fairly selective for their respective PH Domain.

[3] = biological target: T3, E17K mutant PH Domain (PHD) of Akt1 (Homo sapiens, UniProt P31749, E17K); assay: Streptavidin-agarose immunoprecipitation (pulldown), E17K; type: binding; conditions: in words
T3 construct: The first 124 N-terminal amino acids from full length Akt1 were used as the PH Domain DNA; made in house; host or cells: E. coli
Description: as §1, §2, §3

WT GST-PH Domain (Akt1) = biological target: T4, WT GST-PH Domain (Akt1) (Homo sapiens, UniProt P31749); assay: Full curve ELISA, immobilized ligand, WT protein; type: binding; conditions: in words
T4 construct: The first 124 N-terminal amino acids from full length Akt1 were used as the PH Domain DNA; GST (N); thrombin cleavage site (C); 6His (C); made in house; host or cells: E. coli BL21-DE3-pLys
Description: The full curve ELISAs were obtained using streptavidin coated ELISA plates (Pierce). The ligands—anchor, biligand, triligand and “eflya” scrambled anchor peptide blank—were laid down at a concentration of 1 μM for one hour. Two lanes of each ligand were used on the plate for both proteins—WT and E17K GST-PH Domain. The plates were blocked with 5% BSA for two hours. Dilutions of both WT and E17K GST-PH Domain proteins were made in 0.5% BSA in 1×TBS starting from 1 μM-0.5 nM by serially diluting 1:2 down a series of 8 samples. For each ligand, a no protein blank was also used. The proteins were incubated with the blocked plate for one hour, washed 3× with 1×TBST+0.5% BSA and tapped dry, then detected with a 1:10,000 dilution of an HRP conjugated anti-GST pAb. The plate was again washed 3× with 1×TBST and tapped dry. It was developed with a 1:1 solution of TMB substrate and development was stopped with 1M H2SO4 and read on a plate reader. The curves in FIG. 4B were plotted by normalizing the signal by the blank wells, and were fitted to a Hill function in GraphPad using a common saturation and slope (Bmax=1.466+/−0.03, h=0.7383+/−0.025).

[4] = biological target: T5, E17K GST-PH Domain (E17K Akt1) (Homo sapiens, UniProt P31749, E17K); assay: Full curve ELISA, immobilized ligand, E17K protein; type: binding; conditions: in words
T5 construct: The first 124 N-terminal amino acids from full length Akt1 were used as the PH Domain DNA; GST (N); thrombin cleavage site (C); 6His (C); made in house; host or cells: E. coli BL21-DE3-pLys
Description: The full curve ELISAs were obtained using streptavidin coated ELISA plates (Pierce). The ligands—anchor, biligand, triligand and “eflya” scrambled anchor peptide blank—were laid down at a concentration of 1 μM for one hour. Two lanes of each ligand were used on the plate for both proteins—WT and E17K GST-PH Domain. The plates were blocked with 5% BSA for two hours. Dilutions of both WT and E17K GST-PH Domain proteins were made in 0.5% BSA in 1×TBS starting from 1 μM-0.5 nM by serially diluting 1:2 down a series of 8 samples. For each ligand, a no protein blank was also used. The proteins were incubated with the blocked plate for one hour, washed 3× with 1×TBST+0.5% BSA and tapped dry, then detected with a 1:10,000 dilution of an HRP conjugated anti-GST pAb. The plate was again washed 3× with 1×TBST and tapped dry. It was developed with a 1:1 solution of TMB substrate and development was stopped with 1M H2SO4 and read on a plate reader.

[5] = biological target: T6, E17K PH Domain binding to PIP3 (Homo sapiens, UniProt P31749, E17K); assay: PIP3 agarose inhibition assay, E17K; type: biochemical; conditions: ligand 2.38 μM (10x protein), protein 234 nM, western blot, in words
T6 construct: 2 μg of either wildtype or mutant PH Domain-GFP protein (234 nM); made in house; host or cells: HEK-293-6E (used as cell lysate, not purified)
Excerpt: The yleaf ligand, the biligand, and the triligand were all tested for their ability to block the E17K PHD binding with PIP3. For this test, PIP3-coated resin (Echelon Biosciences) was used to mimic the PHD interaction with the cell membrane, and could be used to bind the protein as in an immunoprecipitation assay^22. The presence of an effective blocking compound would reduce the ability of the resin to capture the protein, and would thus appear as a diminished signal in the corresponding western blot assay. A control lane containing no capture agent was used to show baseline binding of the protein to the PIP3 resin. […] In an expanded study, we compared the amount of E17K and WT PH domain binding relative to the amount of added triligand (FIG. 5e).
PIP3 Agarose beads (Echelon) were used to detect for the inhibition of PH Domain binding to its substrate, PIP3, upon incubation with the anchor candidate peptide ligands. To test the inhibition of each of the ligands, anchor biligand and triligand, 20 μL of resin slurry was added to each of four tubes and washed three times with 1×TBS. Protein, 2 μg (234 nM) of E17K mutant, was preincubated for one hour at room temperature with either DMSO (no protein blank), anchor, biligand or triligand at 2.38 μM (10× in relation to protein) in 200 μL of 1×TBS. For the control, mutant PH Domain was incubated with 1×TBS and 1 μL […] to mimic the ligand conditions. These protein samples were then added to PIP3 agarose in a Spin-X tube and incubated at room temperature for two hours. The resin was washed three times with 1×TBS with 0.25% IGEPAL CA-630, spun out to dry completely, then denatured with 50 μL 3×SDS gel loading buffer for 10 min at 95° C. The gel loading buffer was spun out of the resin and detected via western blot as per the Streptavidin-Agarose Pulldowns. Inhibition was indicated by a decrease in the amount of PH Domain that was pulled down by the resin.
Expanded inhibition blots with either WT of E17K mutant protein were performed in a similar fashion. Twelve tubes of 20 μL of PIP3 agarose were washed three times with 1×TBS. 2 μg of either wildtype or mutant PH Domain-GFP protein (234 nM) in 200 uL 1×TBS were preincubated for 30 minutes with differing concentrations of triligand: 0.1 eq (23.4 nM), 1 eq (234 nM), 10 eq (2.34 μM), 100 eq (23.4 μM), and 1000 eq (234 μM). The protein and triligand solutions were then incubated with the PIP3 resin for 2 hours at room temperature. The resins were washed, eluted, and blotted as per all PH Domain western blots.

[6] = streptavidin agarose, 1xTBS, western blot band size
[7] = 6 ug GST-tagged PHD, 1% serum in 1xTBS, western blot, listed as yleaf-yksy

T2 sequence (P31749 1-124): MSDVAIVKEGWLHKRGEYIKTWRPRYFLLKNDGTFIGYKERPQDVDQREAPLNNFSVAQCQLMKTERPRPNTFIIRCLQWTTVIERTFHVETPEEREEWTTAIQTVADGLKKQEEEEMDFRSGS
T3 sequence (P31749 1-124 E17K): as the sequence (P31749 1-124) above, with E17K counted along it
T4 sequence (P31749 1-124): as the sequence (P31749 1-124) above
T6 sequence (P31749 5-108 E17K limits assumed): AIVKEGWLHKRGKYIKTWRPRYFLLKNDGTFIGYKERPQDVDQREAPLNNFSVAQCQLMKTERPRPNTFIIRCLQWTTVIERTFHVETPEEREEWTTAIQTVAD
T5 sequence (P31749 1-124 E17K): as the sequence (P31749 1-124) above, with E17K counted along it

## eefef ([dE][dE][dF][dE][dF]) [off-target control]
[1]
  amount of E17K 33-mer fragment pulled down (HPLC peak): much less pull down than the yleaf
[2]; [6]
  pulldown of wildtype PH Domain by biotinylated anchor candidates: the only pulldown of the wildtype protein
[3]; [6]
  pulldown of E17K mutant PH Domain by biotinylated anchor candidates: the least pulldown for the mutant protein

## CC(=O)N[C@@H](CCCCn1cc(C[C@@H](NC(=O)[C@@H](Cc2ccccc2)NC(=O)[C@@H](C)NC(=O)[C@@H](CCC(=O)O)NC(=O)[C@@H](CC(C)C)NC(=O)[C@@H](Cc2ccc(O)cc2)NC(=O)CCOCCOCCOCCOCCOCCOCCNC(=O)CCCC[C@@H]2SC[C@@H]3NC(=O)N[C@@H]32)C(=O)O)nn1)C(=O)N[C@H](Cc1ccc(O)cc1)C(=O)N[C@H](CCCCN)C(=O)N[C@H](CO)C(=O)N[C@H](Cc1ccc(O)cc1)C(N)=O [biligand] (I: {Biotin-PEG6}-[dY][dL][dE][dA][dF][dPra]-OH / II: Ac-[Lys(N3)][dY][dK][dS][dY]-NH2; triazole I:6-II:1)
WT GST-PH Domain (Akt1)
  change in binding affinity for the WT protein versus the preceding ligand (ELISA): an even larger increase in affinity for the WT protein
[4]
  change in binding affinity for the E17K protein versus the preceding ligand (ELISA): an increase in affinity for the E17K mutant protein
[2]; [7]
  pulldown of WT GST-PHD by biligand candidates: the lowest in binding the WT protein; also recorded: the lowest off-target signal to the WT protein
[3]; [7]
  pulldown of E17K GST-PHD by biligand candidates: the greatest signal in binding the E17K protein; also recorded: the highest signal for the E17K protein
[5]
  inhibition of E17K PH Domain binding to PIP3-coated resin: exhibited the ability to block the PHD-PIP3 interaction
[5]; listed as biligand 7
  inhibition of E17K PH Domain binding to PIP3-coated resin: decreased binding of the protein

## iryrn: triligand candidate: biligand yleaf-yksy with tertiary ligand iryrn (SEQ ID NO: 92) (IRYRN)
WT GST-PH Domain (Akt1)
  change in binding affinity for the WT protein versus the preceding ligand (ELISA): an even bigger increase for the WT protein
[4]
  change in binding affinity for the E17K protein versus the preceding ligand (ELISA): a significant improvement on the binding affinity for the E17K protein

— US10975123B2, “Mutant Akt-specific capture agents, compositions, and methods of using and making” (California Institute of Technology, priority 2014, dated 2021)
